Measured values reported in patent US20250090437A1, “COSMETIC COMPOUNDING AGENT, COSMETIC AND PRODUCTION METHOD THEREOF” (MIYOSHI OIL & FAT CO., LTD., priority 2019, published 2025).
One block for each compound: values may come before it.

Columns and labels:
[1] = Stability of ascorbic acid-based compound (coloration); assay type: physicochemical; parameters: key to Appearance (Visual evaluation) Immediately after preparatiom / Appearance (Visual evaluation) After 7 days 50° C. / Appearance (Visual evaluation) After 7 days Room temperature: ⊚: Colorless and transparent; ∘: Light yellow; Δ: Yellow; x: Brown to black; conditions: 33 wt % aqueous solution
Description: With regard to a 33 wt/% aqueous solution of each of the compounds C46, C49 and C98 to C100 and water, a stability in an aqueous solution condition was visually evaluated. An evaluation method was such that there was prepared a 33 wt % aqueous solution of each of the compounds C46, C49 and C98 to C100, the aqueous solution was then left to stand still at room temperature or in a thermostatic bath of 50° C. for seven days; coloration before and after the still standing was visually confirmed. The evaluation criteria were as follows. • ⊚: Colorless and transparent • ∘: Light yellow • Δ: Yellow • x: Brown to black

[2] = Water retention property and adherability with respect to healthy hair; parameters: species or system human; conditions: for Adherability to the healthy hair: compared to the compounds of comparative examples B1 to B8; for Post-test moisture rate / Compound adhesion rate: healthy hair immersed 60 min in 80 wt % aqueous solution; for Post-test moisture rate: after 24 hours at 40° C., pre-test 7.6%; for Post-test moisture rate / Rate of reduction in moisture: 35 to 40% RH; for Rate of reduction in moisture: healthy hair, 80 wt % aqueous solution, 24 hours at 40° C.
Description: In the following evaluations, a human black hair produced by Beaulax Co., Ltd was used as a healthy hair. A damaged hair was prepared by repeatedly having the healthy hair permed and bleached three times.
An 80 wt % aqueous solution of each of the compounds B1 to B26 (content in terms of anhydride in the cases of the compounds B1 to B23) was prepared, followed by using a Karl Fischer moisture meter (KF-200 by Mitsubishi Chemical Analytech Co., Ltd.) to confirm that a moisture rate was 20.0 wt %. As a healthy hair, there was used a chemically untreated healthy hair (human black hair by Beaulax Co., Ltd). The moisture rate (pre-test moisture rate A) of the hair was measured by an infrared moisture meter (by Kett Electric Laboratory).
After immersion, the hair was taken out, and KimWipes were then used to wipe off the compound until a change in weight was no longer observed, followed by measuring the weight of the hair (post-test hair weight B). The hair from which the compound had been wiped off was then placed into a thermo-hygrostat set to 40° C. and 35 to 40% RH. A moisture rate after 24 hours (post-test moisture rate B) was then measured, followed by calculating a rate of reduction in moisture with the following formula. Likewise, instead of the 80 wt % aqueous solution, evaluation was also performed in a similar manner using only an ion-exchange water (comparative example B4).
Further, an adhesion rate of the compound adhering to the hair was calculated with the following formula. […]

[3] = Sensory evaluation on healthy hair after using organic ammonium salt; parameters: species or system human; conditions: compared to the compounds of the comparative examples
Description: (§1) Here, an 80 wt % aqueous solution(s) of each of the compounds B11, B12, B23, B26 and B27 (content in terms of anhydride in the cases of the compounds B11, B12 and B23) were prepared and used as samples. Next, one minute was spent in evenly applying 10.0 g of each sample to a bundle of the healthy hairs weighing about 10 g, using a brush; the bundle of the healthy hairs was then left for 5 min. After leaving it for 5 min, the bundle of the healthy hairs was rinsed with a hot water of 40° C. for 30 sec, and evaluated was a finger-combing capability at the time of performing washing. The hair bundle that had been rinsed was then dried with a towel and further subjected to air drying for a day, followed by evaluating items such as flexibility, finger-combing capability, texture, elasticity/resilience (feeling by bare hands), volume increase (visual evaluation), cohesiveness, moist feeling, surface smoothness, non-stickiness (feeling by bare hands) and gloss (visual evaluation), from the perspective of superiority or inferiority to a test hair bundle(s) uncoated with the sample.

[4] = Sensory evaluation on damaged hair after using organic ammonium salt; parameters: species or system human; conditions: compared to the compounds of the comparative examples
Description: as §1, with “damaged” for “healthy”, “as” for “as flexibility, finger-combing capability, texture,”, “hands),” for “hands), volume increase (visual evaluation),”, “cohesiveness,” for “cohesiveness, moist feeling,”, “smoothness” for “smoothness, non-stickiness (feeling by bare hands)”, “non-waviness,” for “gloss (visual evaluation),”

[5] = Water retention property test 1; assay type: physicochemical; conditions: 80 wt % aqueous solution
Description: A moisture rate after 24 hours was again measured (post-test moisture rate: B), followed by using the formula below to calculate a rate of reduction in moisture so as to evaluate the water retention property. • Pre-test moisture rate: A (%) • Post-test moisture rate: B (%)

[6] = Water confinement property test (barrier property); assay type: physicochemical; conditions: 24 hours
Description: Next, 20.0 g of an ion-exchange water was put into a 40 mL pierce vial bottle (by AS ONE Corporation.), followed by removing an inner lid (rubber plug) of the pierce vial bottle, placing on the pierce vial bottle the filter paper to which each sample had been applied, and then plugging the bottle with an outer lid.
Further, Wm1, Wm2, Sm1 and Sm2 in the formula below respectively represent the following numerical values.
Wm1: Weight of ion-exchange water in vial before storage (using filter paper to which only ion-exchange water had been applied)
Wm2: Weight of ion-exchange water in vial after 24 hours (using filter paper to which only ion-exchange water had been applied)
Sm1: Weight of ion-exchange water in vial before storage (using filter paper to which sample had been applied)
Sm2: Weight of ion-exchange water in vial after 24 hours (using filter paper to which sample had been applied)

[7] = Permeability to skin (horny layer tape stripping method); assay type: in vivo; conditions: extraction liquid, an hour after application to the arm, HPLC
Description: Skin permeability was evaluated by a horny layer tape stripping method. […] A sample was applied to the arm and then left thereon for an hour before performing tape stripping on the horn by eight layers. An adhered substance on this tape was then extracted with an ion-exchange water over the course of 10 min, followed by filtrating an extraction liquid thus obtained with a 0.2 μm filter, and then quantifying, via HPLC, the amount of each of the compounds C20, C64 and C97 in each extraction liquid filtrated.

[8] = Sensory evaluation on healthy hair after using shampoo agent containing organic ammonium salt; parameters: species or system human; conditions: shampoo agent containing 3.0% by mass of the compound; treated 10 times
Description: Next, the mixture was cooled to a temperature of 30° C. or lower, and a purified water of an evaporated amount was then added thereto so that the whole hair treatment composition would be 100% by mass, followed by uniformly mixing them so as to obtain a hair treatment composition(s). The pH level of the hair treatment composition was adjusted to pH 6.0 by adding a citric acid or sodium hydroxide.
About 5 g of the healthy hair was taken and dipped into 350 ml of a seven-time dilute aqueous solution of each of the abovementioned hair treatment compositions (shampoo agents) at 35 to 40° C. so as to be washed. The healthy hair was then subjected to a rinsing treatment five times using 500 ml of a warm water of 35 to 40° C., followed by drying the same at 80° C., and then performing air drying at 25° C. Such series of treatment involving hair washing, rinsing and drying was repeated 10 times to then evaluate a cohesiveness of the hair, a moist feeling of the hair, a gloss of the hair, a surface smoothness of the hair and a non-stickiness on the surface of the hair, after performing air drying.

[9] = unsealed, 24 hours at 40° C. and 25% RH

Appearance (Visual evaluation) After 7 days 50° C. [1]: Δ~x | Appearance (Visual evaluation) After 7 days Room temperature [1]: ○~Δ | Appearance (Visual evaluation) Immediately after preparatiom [1]: ⊚
Structure (SMILES): O=C1O[C@H]([C@@H](O)CO)C([O-])=C1OP(=O)([O-])[O-].[Na+].[Na+].[Na+] [Compound C100, sodium ascorbyl phosphate]

Structure (SMILES): CCCCCCCC/C=C\CCCCCCCC(=O)OCC(N)(CO)CO [Compound B30, 2-amino-2-hydroxymethyl-1,3-propanediol oleate]
Adherability to the healthy hair [2]: higher adherability | Sensory evaluation on healthy hair (flexibility, finger-combing, texture, elasticity/resilience, volume, cohesiveness, moist feeling, smoothness, non-stickiness, gloss) [3]: superior | Sensory evaluation on damaged hair (elasticity/resilience, cohesiveness, surface smoothness, suppression of waviness) [4]: superior

Structure (SMILES): CCCC[N+](CCCC)(CCCC)CCCC.[Br-] [Compound A54, tetrabutylammonium bromide, reference compound]
Post-test moisture rate [2]: 4.0% | Compound adhesion rate ([2]; listed as B24): 1.0% | Rate of reduction in moisture [2]: 47% | Pre-test moisture rate ([5]; before the test (Karl Fischer)): 20.0% | Post-test moisture rate [5, 9]: 15.3% | Rate of reduction in moisture [5, 9]: 23.6% | Water evaporation inhibition rate ([6]; 80 wt % aqueous solution, 0.01 mL/cm^2 on filter paper, 40° C. and 25% RH): 29.5%

Structure (SMILES): CC(O)C(=O)[O-].[K+] (centres unmarked) [Compound C97, potassium lactate]
Compound concentration ([7]; Tape stripping layer 1): 0.020 ml/L | Compound concentration ([7]; Tape stripping layer 2): 0.017 ml/L | Compound concentration ([7]; Tape stripping layer 3): 0.016 ml/L | Compound concentration ([7]; Tape stripping layer 4): 0.009 ml/L | Compound concentration ([7]; Tape stripping layer 5): 0.008 ml/L | Compound concentration ([7]; Tape stripping layer 6): 0.006 ml/L | Compound concentration ([7]; Tape stripping layer 7): 0.006 ml/L | Compound concentration ([7]; Tape stripping layer 8): 0.006 ml/L

Structure (SMILES): O=C1O[C@H]([C@@H](O)CO)C(O)=C1O [Compound C98, ascorbic acid]
Appearance (Visual evaluation) After 7 days 50° C. [1]: x | Appearance (Visual evaluation) After 7 days Room temperature [1]: x | Appearance (Visual evaluation) Immediately after preparatiom [1]: ⊚

Structure (SMILES): CCCCC/C=C\C/C=C\CCCCCCCC(=O)OCC(C)(N)CO (centres unmarked) [Compound B34, 2-amino-2-methyl-1,3-propanediol linoleate]
Adherability to the healthy hair [2]: higher adherability | Sensory evaluation on healthy hair (flexibility, finger-combing, texture, elasticity/resilience, volume, cohesiveness, moist feeling, smoothness, non-stickiness, gloss) [3]: superior | Sensory evaluation on damaged hair (elasticity/resilience, cohesiveness, surface smoothness, suppression of waviness) [4]: superior

Appearance (Visual evaluation) After 7 days 50° C. [1]: Δ~x | Appearance (Visual evaluation) After 7 days Room temperature [1]: ○ | Appearance (Visual evaluation) Immediately after preparatiom [1]: ⊚
Structure (SMILES): O=C1O[C@H]([C@@H](O)CO)C(O)=C1O[C@H]1O[C@H](CO)[C@@H](O)[C@H](O)[C@H]1O [Compound C99, ascorbic acid glucoside]

Structure (SMILES): CC(C)CCCCCCCCCCCCCCC(=O)OCC(N)(CO)CO [Compound B32, 2-amino-2-hydroxymethyl-1,3-propanediol isostearate]
Adherability to the healthy hair [2]: higher adherability | Sensory evaluation on healthy hair (flexibility, finger-combing, texture, elasticity/resilience, volume, cohesiveness, moist feeling, smoothness, non-stickiness, gloss) [3]: superior | Sensory evaluation on damaged hair (elasticity/resilience, cohesiveness, surface smoothness, suppression of waviness) [4]: superior

Structure (SMILES): CCCCCCCC/C=C\CCCCCCCC(=O)OCC(C)(N)CO (centres unmarked) [Compound B33, 2-amino-2-methyl-1,3-propanediol oleate]
Adherability to the healthy hair [2]: higher adherability | Sensory evaluation on healthy hair (flexibility, finger-combing, texture, elasticity/resilience, volume, cohesiveness, moist feeling, smoothness, non-stickiness, gloss) [3]: superior | Sensory evaluation on damaged hair (elasticity/resilience, cohesiveness, surface smoothness, suppression of waviness) [4]: superior

Structure (SMILES): CCCCC/C=C\C/C=C\CCCCCCCC(=O)OCC(N)(CO)CO [Compound B31, 2-amino-2-hydroxymethyl-1,3-propanediol linoleate]
Adherability to the healthy hair [2]: higher adherability | Sensory evaluation on healthy hair (flexibility, finger-combing, texture, elasticity/resilience, volume, cohesiveness, moist feeling, smoothness, non-stickiness, gloss) [3]: superior | Sensory evaluation on damaged hair (elasticity/resilience, cohesiveness, surface smoothness, suppression of waviness) [4]: superior | Water evaporation inhibition rate ([6]; sample on filter paper over vial of water, 40° C., 25% RH): 48.1%

Structure (SMILES): CC(C)CCCCCCCCCCCCCCC(=O)OCC(C)(N)CO (centres unmarked) [Compound B35, 2-amino-2-methyl-1,3-propanediol isostearate]
Adherability to the healthy hair [2]: higher adherability | Sensory evaluation on healthy hair (flexibility, finger-combing, texture, elasticity/resilience, volume, cohesiveness, moist feeling, smoothness, non-stickiness, gloss) [3]: superior | Sensory evaluation on damaged hair (elasticity/resilience, cohesiveness, surface smoothness, suppression of waviness) [4]: superior

Structure (SMILES): CC(N)(CO)CO.O=C1O[C@H]([C@@H](O)CO)C(O)=C1O [Compound B7]
Compound adhesion rate [2]: 2.4% | Post-test moisture rate [2]: 6.0% | Rate of reduction in moisture [2]: 21% | Sensory evaluation of healthy hair after shampoo agent (cohesiveness, moist feeling, gloss, smoothness, non-stickiness) [8]: favorable
